Laboratory results reported in patent publication US20200102264A1, “MARMELIN ANALOGS AND METHODS OF USE IN CANCER TREATMENT” (THE UNIVERSITY OF KANSAS, priority 2014, published 2020).

Experiments:
[1] = system: HCT116 colon cancer cells; assay: hexoseaminidase cell proliferation assay, HCT116; type: cell-based
Text: (§1) Using hexoseaminidase assay, we determined the effect of the compounds on cell proliferation. […]
(§2) Using hexoseaminidase assay, we determined the effect of the compounds on cell proliferation. […] […] […] Overall, the analogs can be used as chemotherapeutic agents against colon and pancreatic cancer.

SW480 colon cancer cells = assay: hexoseaminidase cell proliferation assay, SW480; type: cell-based
Text: as §1, §2

[2] = system: MiaPaCa-2 pancreatic cancer cells; assay: hexoseaminidase cell proliferation assay, MiaPaCa-2; type: cell-based
Procedure: (§3) Using hexoseaminidase assay, we determined the effect of the compounds on cell proliferation. […] The IC50 value at 48 hours is below 10 μM in all the cancer cell lines.
(§4) Using hexoseaminidase assay, we determined the effect of the compounds on cell proliferation. […] The MRL16 IC50 value at 48 hours is below 0.3 μM in Colon cancer cell lines. […] Overall, the analogs can be used as chemotherapeutic agents against colon and pancreatic cancer.

[3] = system: PanC-1 pancreatic cancer cells; assay: hexoseaminidase cell proliferation assay, PanC-1; type: cell-based
Procedure: as §3, §4

KU7 bladder cancer cells = assay: hexoseaminidase cell proliferation assay, KU7; type: cell-based
Procedure: as §3

HCT116 cells [4] = assay: cell cycle analysis, HCT116; type: cell-based; conditions: HCT116, Table 3
SW480 cells [5] = assay: cell cycle analysis, SW480; type: cell-based; conditions: SW480, Table 3
Procedure: The analogs were tested to determine the ability induce death of colon cancer cells.

HCT116 cells [6] = assay: colony formation, HCT116; type: cell-based
SW480 cells [7] = assay: colony formation, SW480; type: cell-based
[8] = system: caspase 3, caspase 8, caspase 9, Bcl2, BclXL, cytochrome c; assay: western blot analysis, apoptosis proteins; type: cell-based; conditions: HCT116 and SW480 cells, 48 h
Procedure: The pathways for apoptosis were studied to determine whether the analogs were capable of inhibiting certain aspects of the pathways. […] HCT116 and SW480 cells treated with MRL, THB, THBCD, DHB, DHBCD and CD for 48 h and performed for western blot analysis. […] It is shown that THBCD also activates caspase 8 and caspase 9. Furthermore, THB and THBCD inhibit anti-apoptotic protein Bcl2 and BclXL levels. […] HCT116 and SW480 cells treated with MRL, THB, THBCD, DHB, DHBCD and CD for 48 h and performed for western blot analysis. Furthermore, THB and THBCD inhibit phosphorylation of Akt (FIG. 3).

DCLK1, LGR5 and CD44 = assay: stem cell marker protein expression; type: cell-based; conditions: HCT116 and SW480 cells
Procedure: The analogs were also tested with doublecortin and CaM kinase-like-1 (DCLK1), a microtubule-associated kinase expressed in postmitotic neurons and is an intestinal stem cell marker that is expressed in colon adenocarcinoma. DCLK1 distinguishes between tumor and normal stem cells in the intestine and could be a therapeutic target for colon cancer.

Notch-1, Jagged-1, Hes-1 = assay: Notch signaling-related proteins; type: cell-based; conditions: two colon cancer cells
Text: Notch signaling also plays a fundamental role in the differentiation and maintenance of stem cells. […] We next determined the effect of THB or THBCD on Notch signaling-related proteins in the two colon cancer cells.

[9] = system: Mst1/2, Lats1/2, YAP1, TEAD1, 2, and 4; assay: Hippo signaling-related proteins; type: cell-based; conditions: HCT116 and SW480 cell lines
Text: The Hippo pathway regulates stem cell proliferation, self-renewal, and differentiation. YAP1 is highly expressed gene in stem cells. […] We next determined the effect of THB or THBCD on Hippo signaling-related proteins in the two colon cancer cells.

DCLK1+ HCT116 cells = assay: flow cytometric analysis of DCLK1+ cells; type: cell-based; conditions: flow cytometry
CAMKII = assay: kinase activity against CAMKII; type: biochemical
CAMKIV = CAMKIV (Homo sapiens, UniProt Q16566); assay: kinase activity against CAMKIV; type: biochemical
[10] = system: HCT116 colon cancer tumor xenografts; assay: HCT116 colon cancer tumor xenografts in nude mice; type: in vivo
Procedure: (§5) For in vivo, HCT116 cells were injected into the blanks of nude mice, after one week when there was a palpable tumor and these compounds were injected intraperitonially (5 mg/kg body weight) every day for 21 days. Tumor volumes were measured weekly. On 29th day mice were euthanized and the tumors were removed and weighed for use in histology, immunohistochemistry, and gene expression studies. Both THB and THBCD inhibited growth of the tumor. It is noted that the images of FIG. 4C are from left to right: control; THB; and THBCD.
as §5, with “DBQ” for “Both THB and THBCD”, “inhibited the” for “inhibited”, “16C” for “4C”, “control;” for “control; THB;”, “DBQ.” for “THBCD.”
FIGS. 19A and 19B show MRL 16 inhibits tumor growth, such as on colon cancer tumor xenografts. For in vivo, HCT116 cells were injected into the blanks of nude mice, after one week when there was a palpable tumor and these compounds were injected intraperitonially (2 mg/kg body weight) every day for 21 days. Tumor volumes were measured weekly. On 29th day mice were euthanized and the tumors were removed and weighed. MRL16 inhibited growth of the tumor.

[11] = intraperitoneal 5 mg/kg body weight every day for 21 days

Sequence of CAMKIV (Q16566 whole entry, species assumed): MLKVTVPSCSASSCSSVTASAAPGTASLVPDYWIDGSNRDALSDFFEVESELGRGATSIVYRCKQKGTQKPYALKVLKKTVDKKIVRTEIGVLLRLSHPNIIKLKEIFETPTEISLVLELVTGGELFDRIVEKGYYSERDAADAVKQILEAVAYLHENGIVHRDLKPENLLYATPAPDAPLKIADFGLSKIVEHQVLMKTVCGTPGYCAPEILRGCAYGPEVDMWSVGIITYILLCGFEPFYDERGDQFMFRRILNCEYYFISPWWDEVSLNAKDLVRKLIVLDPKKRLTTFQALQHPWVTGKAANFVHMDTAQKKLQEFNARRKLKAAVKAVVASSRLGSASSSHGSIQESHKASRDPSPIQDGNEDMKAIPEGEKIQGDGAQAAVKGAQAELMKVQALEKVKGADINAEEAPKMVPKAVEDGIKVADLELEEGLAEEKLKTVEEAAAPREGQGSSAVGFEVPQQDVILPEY

Structure (SMILES): O=C(N/N=C/c1ccc(O)c(O)c1O)c1cc2ccccc2cc1O [MRL THB]
- IC50 ([1]; HCT116, 24 h): > 50 µM
- IC50 ([1]; HCT116, 48 h): 10 µM
- IC50 ([1]; HCT116, 72 h): 7.5 µM
- IC50 ([1]; HCT116, 72 h, listed as THB): 8 µM
- IC50 (SW480 colon cancer cells; SW480, 24 h): > 50 µM
- IC50 (SW480 colon cancer cells; SW480, 48 h): 10 µM
- IC50 (SW480 colon cancer cells; SW480, 72 h): 10 µM
- IC50 (SW480 colon cancer cells; SW480, 72 h, listed as THB): 9 µM
- IC50 ([2]; MiaPaCa-2, 24 h): > 50 µM
- IC50 ([2]; MiaPaCa-2, 48 h): 10 µM
- IC50 ([2]; MiaPaCa-2, 72 h): 10 µM
- IC50 ([2]; MiaPaCa-2, 72 h, listed as THB): 9 µM
- IC50 ([3]; PanC-1, 24 h): > 50 µM
- IC50 ([3]; PanC-1, 48 h): 10 µM
- IC50 ([3]; PanC-1, 72 h): 8 µM
- IC50 (KU7 bladder cancer cells; KU7, 24 h): 22 µM
- IC50 (KU7 bladder cancer cells; KU7, 48 h): 8 µM
- IC50 (KU7 bladder cancer cells; KU7, 72 h): 6 µM
- G0/G1 (%) (HCT116 cells [4]): 17.2%
- G2M (%) (HCT116 cells [4]): 19.7%
- S (%) (HCT116 cells [4]): 28.1%
- SubG0 Dead Cells (%) (HCT116 cells [4]): 29.0%
- G0/G1 (%) (SW480 cells [5]): 39.5%
- G2M (%) (SW480 cells [5]): 26.8%
- S (%) (SW480 cells [5]): 21.8%
- SubG0 Dead Cells (%) (SW480 cells [5]): 10.8%
- colony formation (HCT116 cells [6]): significantly inhibited colony formation
- colony formation (SW480 cells [7]): significantly inhibited colony formation
- anti-apoptotic protein Bcl2 and BclXL levels [8]: inhibit
- cytochrome c [8]: inhibit
- DCLK1, LGR5 and CD44 expression (DCLK1, LGR5 and CD44): significantly inhibited
- Hes-1 expression (Notch-1, Jagged-1, Hes-1): reduced expression
- Notch-1 and Jagged-1 (Notch-1, Jagged-1, Hes-1): downregulated
- expression of TEAD1, 2, and 4 [9]: significant downregulation
- phosphorylation of Mst1/2, Lats1/2 and YAP1 [9]: significantly downregulated
- DCLK1+ cells (DCLK1+ HCT116 cells): significant decrease
- fold less activity against CAMKII than DCLK1 (CAMKII): 100 fold
- fold less activity against CAMKIV than DCLK1 (CAMKIV): 100 fold
- tumor volume [10, 11]: significantly reduced
- tumor weight [10, 11]: significantly reduced
- phosphorylation of Akt ([10]; tumor tissues): significantly reduced
- COX-2, VEGF and cyclin D1 expression ([10]; tumor xenograft tissues, immunohistochemistry and western blot): significantly reduced
- angiogenesis by CD31 staining ([10]; xenograft tumor tissues, immunohistochemistry): inhibit
- DCLK1 expression ([10]; xenograft tumors, immunohistochemistry and western blot): inhibit
